Source: PMC5314971 (Bioorganic & medicinal chemistry letters, 2017)

Key:
B16F10 [1] = assay: verapamil; conditions: B16F10, verapamil at 100 µM, data not shown
[2] = phase II clinical trial; ref 3a; cited from earlier work
[3] = tested on: acetylated tubulin in B16F10 cells; assay: western blot for accumulation of acetylated tubulin in B16F10 cells; assay type: cell-based
B16F10 [4] = assay: antiproliferation study, B16F10 melanoma cell line
HDAC1 = HDAC1 (Homo sapiens, UniProt Q13547); assay: cell-free HDAC isoform inhibition assay, HDAC1
A375 = assay: antiproliferation study, A375 melanoma cell line; conditions: SAHA as control HDACi
[5] = increasing drug concentrations (5–50 µM)

Chain of HDAC1 (Q13547 whole entry, species assumed, canonical isoform): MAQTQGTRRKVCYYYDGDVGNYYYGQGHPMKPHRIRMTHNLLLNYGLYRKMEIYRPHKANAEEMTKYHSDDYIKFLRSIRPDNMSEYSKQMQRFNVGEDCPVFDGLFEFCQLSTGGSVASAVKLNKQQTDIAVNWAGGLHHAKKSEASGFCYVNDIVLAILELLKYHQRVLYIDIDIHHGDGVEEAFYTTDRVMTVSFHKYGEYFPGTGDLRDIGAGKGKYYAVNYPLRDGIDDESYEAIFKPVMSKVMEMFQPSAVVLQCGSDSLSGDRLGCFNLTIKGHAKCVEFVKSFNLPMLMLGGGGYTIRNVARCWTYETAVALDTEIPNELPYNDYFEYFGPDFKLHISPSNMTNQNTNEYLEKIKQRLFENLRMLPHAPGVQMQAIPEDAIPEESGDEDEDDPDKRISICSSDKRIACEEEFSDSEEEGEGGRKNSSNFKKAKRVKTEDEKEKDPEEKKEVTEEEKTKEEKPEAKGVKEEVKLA

With `CCN(CC)CCNC(=O)c1ccc(-c2cn(CCCCCCC(=O)NO)nn2)cn1` [11b] the “effect of verapamil co-treatment on cytotoxic effect” value (B16F10 [1]) was “did not improve the cytotoxic effect”.
For `CCN(CC)CCNC(=O)c1ccc(I)cc1` [N-(2-(diethylamino)ethyl)-4-iodobenzamide], the “toxicity to the patients” value [2] is given as “little toxicity”.
In the case of `COc1ccc2cc(-c3cn(CCCCCC(=O)NO)nn3)ccc2c1` [7u, reference compound], the “accumulation of acetylated tubulin” value ([3]; 20 µM) was “significant accumulation of acetylated tubulin”.
With `CCN(CC)CCNC(=O)c1ccc(C(=O)ONC(=O)CCCCCn2cc(-c3ccc4cc(OC)ccc4c3)nn2)cc1` [compound 14] the “accumulation of acetylated tubulin” value [3, 5] was “increase in the level of acetylated tubulin in a concentration dependent manner”, the “growth inhibitory effect compared with compound 10a” value (B16F10 [4]; B16F10, at 50 µM (Fig. 4)) was “much more potent than compound 10a” and the “growth inhibitory effect compared with compound 10a” value (B16F10 [4]; B16F10, dosed at 25 µM (Fig. 4)) was “same level of potency as compound 10a”.
With `O=C(CCCCCCC(=O)Nc1ccccc1)NO` [SAHA, reference compound] the “accumulation of acetylated tubulin” value ([3]; 20 µM) was “significant accumulation of acetylated tubulin”.
For `CCN(CC)CCNC(=O)c1ccc(-c2cn(CCCCCC(=O)NO)nn2)cn1` [11a], the “selectivity for HDAC1 compared to HDAC6” value (HDAC1) was “almost indistinguishable”.
For `CCN(CC)CCNC(=O)c1ccc(-c2cn(CCCCCCC(=O)NO)nn2)cc1` [10a], the “fold less active relative to SAHA against A375” value (A375) was roughly 6 fold, the “accumulation of acetylated tubulin” value [3, 5] was “gave a similar effect” and the “selectivity for HDAC1 compared to HDAC6” value (HDAC1) was “about four-fold”. For the same compound, the “fold less active relative to SAHA against B16F10” value (B16F10 [4]; SAHA as control HDACi) was “about 3 fold” and the “effect of verapamil co-treatment on cytotoxic effect” value (B16F10 [1]) was “did not improve the cytotoxic effect”.
